The results in this text go back to US20180221546A1, “IMPLANTABLE ORTHOPEDIC DEVICES HAVING ANTIMICROBIAL COATINGS” (TELEFLEX MEDICAL INCORPORATED, priority 2015, published 2018).

Structures are written as SMILES. Values after ≈ are worked out from the molar mass of the structure shown.

Common to all, as to type: cell-based
Assay [1] deals with Pseudomonas aeruginosa. The assay can be described thus: Time to Kill. To be noted: 128 ppm; P. aeruginosa challenge 10^4-10^5 CFU/mL. How it is done:
(§1) Alexidine and Chlorhexidine, both at a concentration of 128 ppm were exposed to a Gram positive bacteria (Staphylococcus aureus), a Gram negative bacteria (Pseudomonas aeruginosa), and a fungus (Candida albicans). The challenge concentration for each organism was 10^4-10^5 CFU/mL, and the exposure time varied from 0.5-60 minutes. […] Complete kill of all three organisms was observed within 0.5 -1 minute of Alexidine exposure.

Assay [2] relates to Candida albicans. The assay can be described thus: Time to Kill. The settings on record: 128 ppm; C. albicans challenge 10^4-10^5 CFU/mL. How it is done: as §1
The subject of assay [3] is Staphylococcus aureus. Briefly: Time to Kill. The settings on record: 128 ppm; S. aureus challenge 10^4-10^5 CFU/mL. How it is done:
as §1

The next assay concerns Acinetobacter baumannii. The assay can be described thus: MIC and MBC by broth dilution in 96-well plate. The method, then: (§2) From the stock solutions of the drugs Alexidine and Chlorhexidine, dilution series was prepared in the wells of a 96-well plate by performing 1:1 dilutions to cover a concentration range of 0-512 ppm. Ten microliters from each of the drug concentration was mixed with […] of culture broth containing approximately 10^5CFU/mL of bacteria or yeast species. The test plate was incubated for 18-24 hours after which absorbance of each well was read at 670 nm on a BioTek plate reader. […] The wells containing growth should have had higher absorbance reading when compared to the drug control wells. After reading the absorbance for the MIC, 10 μl of each test well was plated onto the surface of D/E agar in 6 or 12 well microtiter plates to determine the MBC. The plates were incubated inverted at 37° C. for 24-48 hours after which numbers of colonies were counted. The MBC value was the lowest concentration of the drug at which no growth was observed.
A general note: In broth dilution the organism is exposed to a series of concentrations in liquid medium.

In the next assay the test system is Proteus mirabilis. The assay can be described thus: MIC and MBC by broth dilution in 96-well plate. The method, then: as §2
The subject of assay [4] is Pseudomonas aeruginosa. The assay can be described thus: MIC and MBC by broth dilution in 96-well plate. How it is done:
as §2

For assay [5], the system named is Candida albicans. Briefly: MIC and MBC by broth dilution in 96-well plate. How it is done: as §2
In a further assay the test system is Enterobacter cloacae. Briefly: MIC and MBC by broth dilution in 96-well plate. The method, then: as §2
For a further assay, the system named is Enterococcus faecalis. The assay can be described thus: MIC and MBC by broth dilution in 96-well plate. How it is done:
as §2

Assay [6] deals with Staphylococcus aureus. Briefly: MIC and MBC by broth dilution in 96-well plate. How it is done:
as §2

In general, MIC refers to the smallest concentration in the dilution series that meets the test's criterion for growth inhibition. A low value points to a more susceptible organism. Regarding `CCCCC(CC)CNC(=N)NC(=N)NCCCCCCNC(=N)NC(=N)NCC(CC)CCCC` (stereo not shown) [Alexidine], the “Time to complete kill” value in the assay with Pseudomonas aeruginosa [1], in the assay with Candida albicans [2] and with Staphylococcus aureus [3] was 0.5 to 1 min throughout. Also, the MBC in the assay with Acinetobacter baumannii came out at 1 µg/mL (≈ 1.97 µM); with Proteus mirabilis, 2 µg/mL (≈ 3.93 µM); in the assay with Pseudomonas aeruginosa [4] it was 128 µg/mL (≈ 252 µM); in the assay with Candida albicans [5] it was 1 µg/mL (≈ 1.97 µM); against Enterobacter cloacae, 2 µg/mL (≈ 3.93 µM); against Enterococcus faecalis, 2 µg/mL (≈ 3.93 µM). Besides, the MBC in the assay with Staphylococcus aureus [6] stood at 1 µg/mL (≈ 1.97 µM). Further, the MIC was determined as 0.5 µg/mL (≈ 0.983 µM) in the assay on Acinetobacter baumannii; 1 µg/mL (≈ 1.97 µM) against Proteus mirabilis; 8 µg/mL (≈ 15.7 µM) against Pseudomonas aeruginosa [4]; 1 µg/mL (≈ 1.97 µM) against Candida albicans [5]; 2 µg/mL (≈ 3.93 µM) with Enterobacter cloacae; 0.5 µg/mL (≈ 0.983 µM) against Enterococcus faecalis. In addition, 0.5 µg/mL (≈ 0.983 µM) was the least that counted as inhibitory against Staphylococcus aureus [6] (MIC).
With `[H]/N=C(\N/C(=N/[H])NCCCCCCNC(=N)NC(=N)Nc1ccc(Cl)cc1)Nc1ccc(Cl)cc1` [Chlorhexidine], the “Time to complete kill” value with Pseudomonas aeruginosa [1] was found to be 5 min; with Candida albicans [2], 60 min; with Staphylococcus aureus [3], 60 min. Also, the MBC against Acinetobacter baumannii was 32 µg/mL (≈ 63.3 µM); in the assay on Proteus mirabilis it was 8 µg/mL (≈ 15.8 µM); in the assay with Pseudomonas aeruginosa [4], 64 µg/mL (≈ 127 µM); in the assay with Candida albicans [5] it was 4 µg/mL (≈ 7.91 µM); against Enterobacter cloacae, 32 µg/mL (≈ 63.3 µM); against Enterococcus faecalis it was 64 µg/mL (≈ 127 µM). In addition, the MBC in the assay with Staphylococcus aureus [6] worked out at 16 µg/mL (≈ 31.7 µM). The MIC amounted to 16 µg/mL (≈ 31.7 µM) against Acinetobacter baumannii; 8 µg/mL (≈ 15.8 µM) against Proteus mirabilis; 8 µg/mL (≈ 15.8 µM) against Pseudomonas aeruginosa [4]; 2 µg/mL (≈ 3.96 µM) against Candida albicans [5]; 2 µg/mL (≈ 3.96 µM) in the assay on Enterobacter cloacae; 2 µg/mL (≈ 3.96 µM) against Enterococcus faecalis. Besides, in the assay on Staphylococcus aureus [6], the MIC is 0.5 µg/mL (≈ 0.989 µM).
